Measurements taken from publication PMC7534258, “Novel temporin L antimicrobial peptides: promoting self-assembling by lipidic tags to tackle superbugs” (Journal of Enzyme Inhibition and Medicinal Chemistry, 2020).
≈ marks a conversion by molar mass, not a printed value. Where a SMILES comes first, the peptide text is derived from it. [ ]: non-standard residue; d: D form. The star is where a group is joined. Tridecanoyl = CCCCCCCCCCCCC(=O)*; Undecanoyl = CCCCCCCCCCC(=O)*; Heptanoyl = CCCCCCC(=O)*; Orn = NCCC[C@H](N)C(=O)O; Pentanoyl = CCCCC(=O)*

Experiments:
P. aeruginosa ATCC 27853 = test: Broth microdilution MIC, reference strain; format: cell-based, Pseudomonas aeruginosa; details: for Antimicrobial activity (MIC) P. aeruginosa ATCC 27853: 100% growth inhibition after 16–18 h at 37 °C
Description: (§1) Staphylococcus aureus ATCC 25923, Pseudomonas aeruginosa ATCC 27853 and Klebsiella pneumoniae ATCC BAA-1705 (carbapenemase producer) were obtained from the American Type Culture Collection (Rockville, MD).
(§2) Identification was performed by sub-culturing on Tryptic Soy Agar (TSA, Becton Dickinson) and by biochemical characterisation using the Vitek II system (Biomerieux). The antimicrobial susceptibility testing of all isolates was determined using Vitek II system and results were interpreted according to European Committee on Antimicrobial Susceptibility Testing (EUCAST version 9.0, 2019). P. aeruginosa was cultured in Brain Heart Infusion broth (BHI, OXOID), S. aureus and K. pneumoniae were cultured in Tryptic Soya broth (TSB, OXOID), under aerobic conditions at 37 °C, for 24 h on an orbital shaker at 200 rpm.
(§3) Minimal inhibitory concentrations (MIC) of all the peptides were determined in Mueller–Hinton medium by the broth microdilution assay, following the procedure already described[22]^,[34]. The compounds were added to bacterial suspension in each well yielding a final cell concentration of 1 × 10^6 CFU/ml and a final compound concentration ranging from 0.78 to 100 µM. Negative control wells were set to contain bacteria in Mueller–Hinton broth plus the amount of vehicle (ethanol) used to dilute each compound. Positive controls included vancomycin (2 µg/ml), tobramycin (4 µg/ml), gentamycin (4 µg/ml), and imipenem (8 µg/ml).

S. aureus ATCC 25923 = test: microbe, parasite or virus in culture; details: for MIC: Staphylococcus aureus, ATCC25923, read-out: Antimicrobial activity (MIC) S. aureus ATCC 25923
Description: as §1, §2, §3

[1] = test system: K. pneumoniae ATCC BAA-1705; test: Broth microdilution MIC, reference strain; format: cell-based, Klebsiella pneumoniae
Description: as §1, §2, §3

Pa2 = test: microbe, parasite or virus in culture; details: Pseudomonas aeruginosa, read-out: Antimicrobial activity (MIC) Pa2
Description: (§4) Clinical strains of P. aeruginosa (Pa1, Pa2 and Pa3), K. pneumoniae (KpCR1, KpCR2 and KpCR3), and S. aureus (Sa1, Sa2 and Sa3) were isolated from bloodstream or pulmonary infections, and belong to a collection of bacterial strains established between 2010 and 2018 at the Department of Molecular Medicine and Medical Biotechnologies (University Federico II, Naples) for research use.
as §2, §3

Sa1 = test: microbe, parasite or virus in culture; details: Staphylococcus aureus, MRSA, read-out: Antimicrobial activity (MIC) Sa1
Description: as §4, §2, §3

Pa3 = test: microbe, parasite or virus in culture; details: Pseudomonas aeruginosa, read-out: Antimicrobial activity (MIC) Pa3
Description: as §4, §2, §3

KpCR3 = test: microbe, parasite or virus in culture; details: Klebsiella pneumoniae, read-out: Antimicrobial activity (MIC) KpCR3
Description: as §4, §2, §3

Sa2 = test: microbe, parasite or virus in culture; details: Staphylococcus aureus, MRSA, read-out: Antimicrobial activity (MIC) Sa2
Description: as §4, §2, §3

KpCR1 = test: microbe, parasite or virus in culture; details: Klebsiella pneumoniae, read-out: Antimicrobial activity (MIC) KpCR1
Description: as §4, §2, §3

Sa3 = test: microbe, parasite or virus in culture; details: Staphylococcus aureus, MRSA, read-out: Antimicrobial activity (MIC) Sa3
Description: as §4, §2, §3

Pa1 = test: microbe, parasite or virus in culture; details: Pseudomonas aeruginosa, PA1, read-out: Antimicrobial activity (MIC) Pa1
Description: as §4, §2, §3

KpCR2 = test: microbe, parasite or virus in culture; details: Klebsiella pneumoniae, read-out: Antimicrobial activity (MIC) KpCR2
Description: as §4, §2, §3

[2] = 100% growth inhibition after 16–18 h at 37 °C

Row | SMILES | Antimicrobial activity (MIC) P. aeruginosa ATCC 27853 (P. aeruginosa ATCC 27853) [µM] | Antimicrobial activity (MIC) S. aureus ATCC 25923 (S. aureus ATCC 25923; [2]) [µM] | Antimicrobial activity (MIC) K. pneumoniae ATCC BAA-1705 [1, 2] [µM] | Antimicrobial activity (MIC) S. aureus ATCC 25923 (S. aureus ATCC 25923; ATCC 25923) [µM] | further results
1 | CC[C@H](C)[C@H](NC(=O)[C@H](CCCNC(=N)N)NC(=O)CNC(=O)[C@@H](CC(C)C)NC(=O)[C@H](Cc1ccccc1)NC(=O)[C@H](CCCCN)NC(=O)[C@H](CO)NC(=O)[C@H](Cc1ccccc1)NC(=O)[C@H](Cc1c[nH]c2ccccc12)NC(=O)[C@@H]1CCCN1C(=O)[C@@H](NC(=O)[C@@H](N)Cc1ccccc1)C(C)C)C(=O)N[C@@H](CC(C)C)C(N)=O [Compound 1A, H-Phe-Val-Pro-Trp-Phe-Ser-Lys-Phe-dLeu-Gly-Arg-Ile-Leu-NH2] (H-FVPWFSKF[dL]GRIL-NH2) | 50 | 6.25 | 50 |  | 
2 | CCCCC(=O)N[C@@H](Cc1ccccc1)C(=O)N[C@H](C(=O)N1CCC[C@H]1C(=O)N[C@@H](Cc1c[nH]c2ccccc12)C(=O)N[C@@H](Cc1ccccc1)C(=O)N[C@@H](CO)C(=O)N[C@@H](CCCCN)C(=O)N[C@@H](Cc1ccccc1)C(=O)N[C@H](CC(C)C)C(=O)NCC(=O)N[C@@H](CCCNC(=N)N)C(=O)N[C@H](C(=O)N[C@@H](CC(C)C)C(N)=O)[C@@H](C)CC)C(C)C [Compound 2A, CH3(CH2)3CO-Phe-Val-Pro-Trp-Phe-Ser-Lys-Phe-DLeu-Gly-Arg-Ile-Leu-NH2] (Pentanoyl-FVPWFSKF[dL]GRIL-NH2) |  |  |  | 12.5 | 
3 | CCCCCCC(=O)N[C@@H](Cc1ccccc1)C(=O)N[C@H](C(=O)N1CCC[C@H]1C(=O)N[C@@H](Cc1c[nH]c2ccccc12)C(=O)N[C@@H](Cc1ccccc1)C(=O)N[C@@H](CO)C(=O)N[C@@H](CCCCN)C(=O)N[C@@H](Cc1ccccc1)C(=O)N[C@H](CC(C)C)C(=O)NCC(=O)N[C@@H](CCCNC(=N)N)C(=O)N[C@H](C(=O)N[C@@H](CC(C)C)C(N)=O)[C@@H](C)CC)C(C)C [Compound 3A, CH3(CH2)5CO-Phe-Val-Pro-Trp-Phe-Ser-Lys-Phe-DLeu-Gly-Arg-Ile-Leu-NH2] (Heptanoyl-FVPWFSKF[dL]GRIL-NH2) |  |  |  | 12.5 | 
4 | CCCCCCCCCCC(=O)N[C@@H](Cc1ccccc1)C(=O)N[C@H](C(=O)N1CCC[C@H]1C(=O)N[C@@H](Cc1c[nH]c2ccccc12)C(=O)N[C@@H](Cc1ccccc1)C(=O)N[C@@H](CO)C(=O)N[C@@H](CCCCN)C(=O)N[C@@H](Cc1ccccc1)C(=O)N[C@H](CC(C)C)C(=O)NCC(=O)N[C@@H](CCCNC(=N)N)C(=O)N[C@H](C(=O)N[C@@H](CC(C)C)C(N)=O)[C@@H](C)CC)C(C)C [Compound 4A, CH3(CH2)9CO-Phe-Val-Pro-Trp-Phe-Ser-Lys-Phe-DLeu-Gly-Arg-Ile-Leu-NH2] (Undecanoyl-FVPWFSKF[dL]GRIL-NH2) | > 100 | > 100 | > 100 |  | 
5 | CCCCCCCCCCC(=O)N[C@@H](Cc1ccccc1)C(=O)N[C@H](C(=O)N1CCC[C@H]1C(=O)N[C@@H](Cc1c[nH]c2ccccc12)C(=O)N[C@@H](Cc1ccccc1)C(=O)N[C@@H](CO)C(=O)N[C@@H](CCCCN)C(=O)N[C@@H](Cc1ccccc1)C(=O)N[C@H](CC(C)C)C(=O)N[C@H](CCCCN)C(=O)N[C@@H](CCCNC(=N)N)C(=O)N[C@H](C(=O)N[C@@H](CC(C)C)C(N)=O)[C@@H](C)CC)C(C)C [Compound 4B, CH3(CH2)9CO-Phe-Val-Pro-Trp-Phe-Ser-Lys-Phe-DLeu-DLys-Arg-Ile-Leu-NH2] (Undecanoyl-FVPWFSKF[dL][dK]RIL-NH2) | > 100 | > 100 | > 100 |  | 
6 | CCCCCCCCCCCCC(=O)N[C@@H](Cc1ccccc1)C(=O)N[C@H](C(=O)N1CCC[C@H]1C(=O)N[C@@H](Cc1c[nH]c2ccccc12)C(=O)N[C@@H](Cc1ccccc1)C(=O)N[C@@H](CO)C(=O)N[C@@H](CCCCN)C(=O)N[C@@H](Cc1ccccc1)C(=O)N[C@H](CC(C)C)C(=O)NCC(=O)N[C@@H](CCCNC(=N)N)C(=O)N[C@H](C(=O)N[C@@H](CC(C)C)C(N)=O)[C@@H](C)CC)C(C)C [Compound 5A, CH3(CH2)11CO-Phe-Val-Pro-Trp-Phe-Ser-Lys-Phe-DLeu-Gly-Arg-Ile-Leu-NH2] (Tridecanoyl-FVPWFSKF[dL]GRIL-NH2) | > 100 | > 100 | > 100 |  | 
7 | CCCCCCCCCCCCC(=O)N[C@@H](Cc1ccccc1)C(=O)N[C@H](C(=O)N1CCC[C@H]1C(=O)N[C@@H](Cc1c[nH]c2ccccc12)C(=O)N[C@@H](Cc1ccccc1)C(=O)N[C@@H](CO)C(=O)N[C@@H](CCCCN)C(=O)N[C@@H](Cc1ccccc1)C(=O)N[C@H](CC(C)C)C(=O)N[C@H](CCCCN)C(=O)N[C@@H](CCCNC(=N)N)C(=O)N[C@H](C(=O)N[C@@H](CC(C)C)C(N)=O)[C@@H](C)CC)C(C)C [Compound 5B, CH3(CH2)11CO-Phe-Val-Pro-Trp-Phe-Ser-Lys-Phe-DLeu-DLys-Arg-Ile-Leu-NH2] (Tridecanoyl-FVPWFSKF[dL][dK]RIL-NH2) | > 100 | > 100 | > 100 |  | 
8 | CCCCC(=O)NCCC[C@H](NC(=O)[C@H](CC(C)C)NC(=O)[C@@H](NC(=O)[C@H](CCCNC(=N)N)NC(=O)[C@@H](CCCCN)NC(=O)[C@@H](CC(C)C)NC(=O)[C@H](Cc1ccccc1)NC(=O)[C@H](CCCCN)NC(=O)[C@H](CO)NC(=O)[C@H](Cc1ccccc1)NC(=O)[C@H](Cc1c[nH]c2ccccc12)NC(=O)[C@@H]1CCCN1C(=O)[C@@H](NC(=O)[C@@H](N)Cc1ccccc1)C(C)C)[C@@H](C)CC)C(N)=O [D, H-Phe-Val-Pro-Trp-Phe-Ser-Lys-Phe-DLeu-DLys-Arg-Ile-Leu-Orn(NHCO(CH2)3CH3)-NH2] (H-FVPWFSKF[dL][dK]RIL[Orn](Pentanoyl)-NH2) |  |  |  | 25 | Antimicrobial activity (MIC) K. pneumoniae ATCC BAA-1705 ([1]; ATCC BAA-1705): 50 µM
9 | CCCCCCC(=O)NCCC[C@H](NC(=O)[C@H](CC(C)C)NC(=O)[C@@H](NC(=O)[C@H](CCCNC(=N)N)NC(=O)[C@@H](CCCCN)NC(=O)[C@@H](CC(C)C)NC(=O)[C@H](Cc1ccccc1)NC(=O)[C@H](CCCCN)NC(=O)[C@H](CO)NC(=O)[C@H](Cc1ccccc1)NC(=O)[C@H](Cc1c[nH]c2ccccc12)NC(=O)[C@@H]1CCCN1C(=O)[C@@H](NC(=O)[C@@H](N)Cc1ccccc1)C(C)C)[C@@H](C)CC)C(N)=O [E, H-Phe-Val-Pro-Trp-Phe-Ser-Lys-Phe-DLeu-DLys-Arg-Ile-Leu-Orn(NHCO(CH2)5CH3)-NH2] (H-FVPWFSKF[dL][dK]RIL[Orn](Heptanoyl)-NH2) |  |  |  | 25 | Antimicrobial activity (MIC) K. pneumoniae ATCC BAA-1705 ([1]; ATCC BAA-1705): 50 µM
10 | CNC(C)C1CCC(N)C(OC2C(N)CC(N)C(OC3OCC(C)(O)C(NC)C3O)C2O)O1 (stereo not shown) [Gentamicin] |  |  |  |  | MIC (Pa2): > 4 µg/mL; MIC (Sa1): < 1 µg/mL; MIC (Pa3): > 4 µg/mL; MIC (KpCR3): 1 µg/mL (≈ 2.09 µM); MIC (Sa2): < 1 µg/mL; MIC (KpCR1): 1 µg/mL (≈ 2.09 µM); MIC (Sa3): < 1 µg/mL; MIC (Pa1): > 4 µg/mL; MIC (KpCR2): > 8 µg/mL; MIC (P. aeruginosa ATCC 27853; Pseudomonas aeruginosa, ATCC27853, antibiotics, 16–18 h at 37 °C, read-out: Antimicrobial activity (MIC) P. aeruginosa ATCC 27853): 4 µg/mL (≈ 8.38 µM); MIC (S. aureus ATCC 25923): 1 µg/mL (≈ 2.09 µM); MIC ([1]; Klebsiella pneumoniae, ATCCBAA1705, antibiotics, 16–18 h at 37 °C, read-out: Antimicrobial activity (MIC) K. pneumoniae ATCC BAA-1705): 4 µg/mL (≈ 8.38 µM)
11 | CN[C@H](CC(C)C)C(=O)N[C@H]1C(=O)N[C@@H](CC(N)=O)C(=O)N[C@H]2C(=O)N[C@H]3C(=O)N[C@H](C(=O)N[C@H](C(=O)O)c4cc(O)cc(O)c4-c4cc3ccc4O)[C@H](O)c3ccc(c(Cl)c3)Oc3cc2cc(c3O[C@@H]2O[C@H](CO)[C@@H](O)[C@H](O)[C@H]2O[C@H]2C[C@](C)(N)[C@H](O)[C@H](C)O2)Oc2ccc(cc2Cl)[C@H]1O [Vancomycin] |  |  |  |  | MIC (Sa1): 2 µg/mL (≈ 1.38 µM); MIC (Sa2): 1 µg/mL (≈ 0.69 µM); MIC (Sa3): 2 µg/mL (≈ 1.38 µM); MIC (S. aureus ATCC 25923): 2 µg/mL (≈ 1.38 µM)
